Test [1] deals with Staphylococcus aureus subsp. aureus (ATCC29213). The experiment in a line: MIC, broth microdilution (CLSI), Staphylococcus aureus subsp. aureus ATCC29213. Type of test: cell-based. As to conditions: ATCC29213, Table 15, read-out: S. aureus ("wound") (MIC). In general terms: In broth dilution the organism is exposed to a series of concentrations in liquid medium.
Test [2] has as its system E. coli RNase P RNA, M1 RNA. The experiment in a line: Inhibition of bacterial RNase P activity, IC50 determination (cleavage of pATSerUG by M1 RNA). It is filed as biochemical. As to conditions: NI = No inhibition.
For test [3], the system named is Escherichia coli (ATCC25922). Put plainly: MIC, broth microdilution (CLSI), Escherichia coli ATCC25922. The note with it: ATCC25922, read-out: E. coli MIC, Table 15, NI = No inhibition.
The subject of test [4] is Staphylococcus aureus (ATCC25923). The experiment in a line: MIC, broth microdilution (CLSI), Staphylococcus aureus ATCC25923. The note with it: ATCC25923, read-out: S. aureus ("Clinical") MIC.

pIC50: −log10 of the molar value. Converted amounts (≈) assume the structure as drawn. Some results are limits rather than exact numbers.

Consider `CN(C)CCCN1c2ccc(-c3cc4ccccc4[nH]3)cc2Sc2cccnc21` [compound 135, 3-(7-(1H-Indol-2-yl)-10H-benzo[b]pyrido[2,3-e][1,4]thiazin-10-yl)-N,N-dimethylpropan-1-amine], for which the figures for the MIC in test [1], in test [3] and in test [4] were 8 µg/mL (≈ 20 µM), more than 100 µg/mL and 6 µg/mL (≈ 15 µM), respectively. Also, the pIC50 in test [2] is 4.49 to 4.62.
For `COC(=O)c1ccc2c(c1)Sc1cc(C(F)(F)F)cc(NC3CCN(CCN)CC3)c1N2` [compound 247, Methyl 9-((1-(2-aminoethyl)piperidin-4-yl)amino)-7-(trifluoromethyl)-10H-phenothiazine-3-carboxylate] the same measures were 8 µg/mL (≈ 17.1 µM), 4 µg/mL (≈ 8.57 µM), 4 µg/mL (≈ 8.57 µM) and 4.80.
The like results for `NC1CCCC(C(=O)Nc2cc(C(F)(F)F)cc3c2Nc2ccccc2S3)C1` (stereo not shown) [compound 105, 3-Amino-N-(3-(trifluoromethyl)-10H-phenothiazin-1-yl)cyclohexanecarboxamide] were, in that order, 32 µg/mL (≈ 78.5 µM), 52 µg/mL (≈ 128 µM), 26 µg/mL (≈ 63.8 µM) and 4.82.
With `N#Cc1ccc2c(c1)Sc1cc(C(F)(F)F)cc(NC3CCN(CCN)CC3)c1N2` [compound 217, 9-((1-(2-Aminoethyl)piperidin-4-yl)amino)-7-(trifluoromethyl)-10H-phenothiazine-3-carbonitrile], the MIC came to 4 µg/mL (≈ 9.23 µM) in test [1], 3 µg/mL (≈ 6.92 µM) in test [3] and 2 µg/mL (≈ 4.61 µM) in test [4]. Further, the pIC50 in test [2] was 5.00.
Take `NCCCN1c2ccccc2Sc2cc(-c3cc4ccccc4n3CCN)ccc21.O=C(O)C(F)(F)F.O=C(O)C(F)(F)F` [compound 222, 3-(3-(1-(2-aminoethyl)-1H-indol-2-yl)-10H-phenothiazin-10-yl)propan-1-amine bis(2,2,2-trifluoroacetate) salt]: the pIC50 in test [2] was 4.74. The MIC in test [3] amounted to 5 µg/mL; in test [4], 3 µg/mL.
The compound `O=C(Nc1cc(C(F)(F)F)cc2c1Nc1ccccc1S2)C1CCNCC1` [compound 207, N-(3-(trifluoromethyl)-10H-phenothiazin-1-yl)piperidine-4-carboxamide] had a pIC50 in test [2] of 3.96. The MIC turned out to be 50 µg/mL (≈ 127 µM) in test [3] and 25 µg/mL (≈ 63.5 µM) in test [4].
For `NCCN1CCC(Nc2cc(C(F)(F)F)cc3c2Nc2ccc(Cl)cc2S3)CC1` [compound 226, N-(1-(2-Aminoethyl)piperidin-4-yl)-7-chloro-3-(trifluoromethyl)-10H-phenothiazin-1-amine] the same measures were 4.64, 14 µg/mL (≈ 31.6 µM) and 4 µg/mL (≈ 9.03 µM).
For `N[C@H]1CCC[C@@H](C(=O)Nc2cc(C(F)(F)F)cc3c2Nc2ccccc2S3)C1` [compound 118, (1R,3S)-3-amino-N-(3-(trifluoromethyl)-10H-phenothiazin-1-yl)cyclohexane-carboxamide] the same measures were 4.77, 26 µg/mL (≈ 63.8 µM) and 13 µg/mL (≈ 31.9 µM).
The like results for `NCCN1CC(Nc2cc(C(F)(F)F)cc3c2Nc2ccccc2S3)C1` [compound 208, N-(1-(2-aminoethyl)azetidin-3-yl)-3-(trifluoromethyl)-10H-phenothiazin-1-amine] were, in that order, 3.59, 24 µg/mL (≈ 63.1 µM) and 12 µg/mL (≈ 31.5 µM).
As for `N#Cc1cc(NC2CCN(CCN)CC2)c2c(c1)Sc1ccccc1N2` [compound 215, 1-((1-(2-aminoethyl)piperidin-4-yl)amino)-10H-phenothiazine-3-carbonitrile], the pIC50 in test [2] was less than 4.00. Besides, the MIC in test [3] was 47 µg/mL (≈ 129 µM); in test [4], 23 µg/mL (≈ 62.9 µM).
With `CN(C)CCCN1c2ccccc2Sc2cc(-c3cccc4cn[nH]c34)ccc21` [compound 129, 3-(3-(1H-indazol-7-yl)-10H-phenothiazin-10-yl)-N,N-dimethylpropan-1-amine], in test [2], the pIC50 is less than 4.00. For the same compound, the MIC is more than 100 µg/mL in test [3] and 6 µg/mL (≈ 15 µM) in test [4].
The like results for `NCCNC1CCCC(C(=O)Nc2cc(C(F)(F)F)cc3c2Nc2ccccc2S3)C1` (stereo not shown) [compound 163, 3-((2-aminoethyl)amino)-N-(3-(trifluoromethyl)-10H-phenothiazin-1-yl)cyclohexane-carboxamide] were, in that order, 4.14, 14 µg/mL (≈ 31.1 µM) and 14 µg/mL (≈ 31.1 µM).
The like results for `FC(F)(F)c1cc(NC2CCNCC2)c2c(c1)Oc1ccccc1N2` [compound 169, N-(piperidin-4-yl)-3-(trifluoromethyl)-10H-phenoxazin-1-amine] were, in that order, 4.44, 45 µg/mL (≈ 129 µM) and 11 µg/mL (≈ 31.5 µM).
In turn, `N#Cc1cc(NC(=O)C2CCCC(N)C2)c2c(c1)Sc1ccccc1N2` (stereo not shown) [compound 119, 3-amino-N-(3-cyano-10H-phenothiazin-1-yl)cyclohexane-carboxamide] had a pIC50 in test [2] of less than 4.00. The MIC in test [3] was more than 100 µg/mL; in test [4] it was 93 µg/mL (≈ 255 µM).
The like results for `NC1CCCC(C(=O)Nc2cc(C(F)(F)F)cc3c2Nc2cc(F)ccc2S3)C1.O=C(O)C(F)(F)F` (stereo not shown) [compound 124, 3-Amino-N-(8-fluoro-3-(trifluoromethyl)-10H-phenothiazin-1-yl)cyclohexane carboxamide. TFA Salt] were, in that order, 4.23, 35 µg/mL and 17 µg/mL.
Consider `NC1CCCC(C(=O)Nc2cc(C(F)(F)F)cc3nc4ccccc4nc23)C1` (stereo not shown) [compound 211, 3-amino-N-(3-(trifluoromethyl)phenazin-1-yl) cyclohexane-carboxamide], for which the MIC in test [1] amounted to 211 µg/mL (≈ 543 µM); in test [4], 25 µg/mL (≈ 64.4 µM). Moreover, the pIC50 in test [2] is 3.59.
Regarding `CC(Nc1cc(C(F)(F)F)cc2c1Nc1ccccc1S2)C1CCCC(N)C1` (stereo not shown) [compound 190, N-(1-(3-aminocyclohexyl)ethyl)-3-(trifluoromethyl)-10H-phenothiazin-1-amine], the pIC50 in test [2] was 4.09. Moreover, the figures for the MIC in test [3] and in test [4] were 26 µg/mL (≈ 63.8 µM) and 3 µg/mL (≈ 7.36 µM), respectively.
As for `NCCN(CCN)CCN1CCC(Nc2cc(C(F)(F)F)cc3c2Nc2ccccc2S3)CC1` [compound 234, N1-(2-aminoethyl)-N1-(2-(4-((3-(trifluoromethyl)-10H-phenothiazin-1-yl)amino)piperidin-1-yl)ethyl)ethane-1,2-diamine], the MIC in test [1] turned out to be 8 µg/mL (≈ 16.2 µM); in test [3] it was 8 µg/mL (≈ 16.2 µM); in test [4], 4 µg/mL (≈ 8.09 µM).
Consider `N[C@H]1CCC[C@H](CNc2cc(C(F)(F)F)cc3c2Nc2ccccc2S3)C1.O=C(O)C(F)(F)F` [compound 187, N-(((1S,3S)-3-aminocyclohexyl)methyl)-3-(trifluoromethyl)-10H-phenothiazin-1-amine 2,2,2-trifluoroacetate], for which, in test [2], the pIC50 is 4.28. Further, the MIC is 16 µg/mL in test [3] and 4 µg/mL in test [4].
The like results for `NCCN1CC(C(=O)Nc2cc(C(F)(F)F)cc3c2Nc2ccccc2S3)C1` [compound 196] were, in that order, less than 4.00, 52 µg/mL (≈ 127 µM) and 26 µg/mL (≈ 63.7 µM).
With `O=C(Nc1cc(C(F)(F)F)cc2c1Nc1ccccc1S2)C1CCCC(O)C1` (stereo not shown) [compound 148, 3-hydroxy-N-(3-(trifluoromethyl)-10H-phenothiazin-1-yl)cyclohexane-carboxamide], in test [2], the pIC50 was less than 4.00. Also, the MIC is more than 100 µg/mL in test [3] and 26 µg/mL (≈ 63.7 µM) in test [4].
For `NCCCNc1cc(C(F)(F)F)cc2c1Nc1ccccc1S2` [compound 97, N1-(3-(trifluoromethyl)-10H-phenothiazin-1-yl)propane-1,3-diamine] the same measures were less than 4.00, 8 µg/mL (≈ 23.6 µM) and 4 µg/mL (≈ 11.8 µM).
The like results for `NC1CCC(C(=O)Nc2cc(C(F)(F)F)cc3c2Nc2ccccc2S3)CC1` (stereo not shown) [compound 95, 4-amino-N-(3-(trifluoromethyl)-10H-phenothiazin-1-yl)cyclohexane-carboxamide] were, in that order, 4.03, 64 µg/mL (≈ 157 µM) and 32 µg/mL (≈ 78.5 µM).
The like results for `CN(C)CCCN1c2ccccc2Sc2cc(C(F)(F)F)cc(NC(N)=S)c21` [compound 87, 1-(10-(3-(Dimethylamino)propyl)-3-(trifluoromethyl)-10H-phenothiazin-1-yl)thiourea] were, in that order, less than 4.00, more than 100 µg/mL and 55 µg/mL (≈ 129 µM).
In test [2], `CN(C)CCCN1c2ccccc2Sc2cc(-c3ccnc(F)c3)ccc21` [compound 122, 3-(3-(2-fluoropyridin-4-yl)-10H-phenothiazin-10-yl)-N,N-dimethylpropan-1-amine] showed a pIC50 of less than 4.00. Besides, the values for the MIC in test [3] and in test [4] were more than 100 µg/mL and 24 µg/mL (≈ 63.2 µM), respectively.
The like results for `NNC(=O)c1cc(NC2CCNCC2)c2c(c1)Sc1ccccc1N2.O=C(O)C(F)(F)F` [compound 210, 1-(piperidin-4-ylamino)-10H-phenothiazine-3-carbohydrazide 2,2,2-trifluoroacetate salt] were, in that order, 4.02, more than 100 µg/mL and 60 µg/mL.
The like results for `CN(C)CCCN1c2ccccc2Sc2cc(-c3ccc4scnc4c3)ccc21` [compound 130, 3-(3-(benzo[d]thiazol-5-yl)-10H-phenothiazin-10-yl)-N,N-dimethylpropan-1-amine] were, in that order, 4.24, more than 100 µg/mL and 7 µg/mL (≈ 16.8 µM).
The like results for `NCCN1CCCC(CNc2cc(C(F)(F)F)cc3c2Nc2ccccc2S3)C1` (stereo not shown) [compound 220, N-((1-(2-aminoethyl)piperidin-3-yl)methyl)-3-(trifluoromethyl)-10H-phenothiazin-1-amine] were, in that order, less than 4.00, 7 µg/mL (≈ 16.6 µM) and 7 µg/mL (≈ 16.6 µM).
In test [2], `CN(C)CCCN1c2ccccc2Sc2cc(-c3cc4cc(O)ccc4[nH]3)ccc21` [compound 152, 2-(10-(3-(dimethylamino)propyl)-10H-phenothiazin-3-yl)-1H-indol-5-ol] showed a pIC50 of less than 4.00. Moreover, the MIC in test [3] is more than 100 µg/mL; in test [4] it was 13 µg/mL (≈ 31.3 µM).

Broadly, the MIC is the smallest concentration in the dilution series that meets the test's criterion for growth inhibition. For orientation: pIC50 means −log10 of the IC50, conventionally taken in molar units. A higher pIC50 goes with a low IC50.

These data come from patent US11130741B2 (Bioimics AB, priority 2016, dated 2021).
